Source: article PMC5318888, “SAMHD1 enhances nucleoside-analogue efficacy against HIV-1 in myeloid cells” (Scientific Reports, 2017)
Where “and” joins values, the source holds several entries; their conditions need not be identical. Identical values can stand only once.

How the values were obtained:
Type in all cases: cell-based
[1] = tested on: HIV-1-GFP; test: microbe, parasite or virus in culture
Protocol: Cells were then infected with HIV-1-GFP by spinoculation at 800 × g for 90 min in the presence of 1 μg/mL polybrene, and further incubated at 37 °C in 5% CO2 for 72 h. […] Cells were then infected with HIV-1-GFP by spinoculation at 800 × g for 90 min in the presence of 1 μg/mL polybrene, and further incubated at 37 °C in 5% CO2 for 72 h. Non-dividing U937 and THP-1 (PMA^+) cells (6 × 10^5 cells/mL) were differentiated by addition of 100 nM PMA (PMA^+) for 48 h and treated with increasing concentrations of nucleoside analogues as described above. Cells were then infected with HIV-1-GFP in the presence of 1 μg/mL polybrene and further incubated at 37 °C in 5% CO2 for 72 h. The percentage of GFP^+cells was determined by one-colour flow cytometry using a Fortessa X20 analyser (BD Biosciences) and the data analysed using the FlowJo software suite.
(§1) Non-ambiguous values were subjected to a replicate test to calculate confidence intervals of 95% (95% CI). CC50 and EC50 values were determined for at least two independent experiments for each nucleoside analogue and a selectivity index (SI) also calculated, (SI = CC50/EC50). EC50 values for each replicate were used to perform an unpaired two-tailed t-test to determine significant differences between U937 cells expressing SAMHD1 wt or HD206-7AA mutant and THP-1 cells expressing Vpx or untransduced cells. P values of <0.005 were considered statistically significant.

[2] = tested on: HIV-1-GFP; test: Anti-HIV-1 activity in THP-1 cells with or without Vpx transduction
Protocol: Antiviral assays were further performed in monocytoid cells transduced with YFP-expressing VLPs containing WT SAMHD1, HD206-7AA or Vpx. Briefly, U937 cells (6 × 10^5 cells/mL) were transduced with WT SAMHD1-YFP or HD206-7AA-YFP VLPs by spinoculation at 800 × g for 90 min in the presence of 1 μg/mL polybrene. Similarly, THP-1 cells (6 × 10^5 cells/mL) were transduced with Vpx-YFP VLPs by spinoculation at 800 × g for 90 min in the presence of 1 μg/mL polybrene. Cells were incubated at 37 °C in 5% CO2 and after 72 h, PMA^+ cells (6 × 10^5 cells/mL) were treated with 100 nM PMA and PMA^− cells (7.5 × 10^4 cells/mL) were left untreated. Cells were then incubated at 37 °C in 5% CO2 for 48 h. Nucleoside analogues were added at increasing concentrations (0–200 μM; except CFB, 0–1.6 μM) and cells were further incubated for 48 h. PMA^− cells were then infected with HIV-1-GFP by spinoculation at 800 × g for 90 min in the presence of 1 μg/mL polybrene, PMA^+ cells were infected with HIV-1-GFP in the presence of 1 μg/mL polybrene only. Cells were incubated for 72 h at 37 °C in 5% CO2 and then analysed by two-colour flow cytometry using a Fortessa X20 analyser (BD Biosciences). Data were analysed using the FlowJo software suite.
as §1, with “The cytotoxic concentration of nucleoside analogue that inhibits cell viability by 50% (CC50) and the effective concentration of nucleoside analogue that inhibits infection of cells by 50% (EC50) were calculated for each independent experiment by non-linear regression using GraphPad Prism v6.00 for Windows (GraphPad Software, San Diego, CA). Non-ambiguous” for “Non-ambiguous”

[3] = Cytotoxicity, live cells by flow cytometry, H9 cells; details: human
Protocol: (§2) H9, Jurkat and undifferentiated U937 and THP-1 (PMA^−) cells (6 × 10^5 cells/mL) were treated with increasing concentrations of nucleoside analogues (0–200 μM; except CFB, 0–1.6 μM) and incubated at 37 °C in 5% CO2 for 48 h. Medium was then replaced and cells were further incubated for 72 h. Non-dividing U937 and THP-1 (PMA^+) cells (6 × 10^5 cells/mL) were differentiated by addition of 100 nM phorbol-12-myristate-13-acetate (PMA^+) for 48 h and then treated with increasing concentrations of nucleoside analogues as described above. The percentage of live cells was determined by flow cytometry using Live/Dead fixable blue-fluorescent dyes (Invitrogen) and a Fortessa X20 analyser (BD Biosciences). Data were analysed using the FlowJo software suite.
as §1, with “The cytotoxic concentration of nucleoside analogue that inhibits cell viability by 50% (CC50) and the effective concentration of nucleoside analogue that inhibits infection of cells by 50% (EC50) were calculated for each independent experiment by non-linear regression using GraphPad Prism v6.00 for Windows (GraphPad Software, San Diego, CA). Non-ambiguous” for “Non-ambiguous”

[4] = Cytotoxicity, live cells by flow cytometry, U937 cells (PMA−/PMA+); details: human
Protocol: as §2
as §1, with “The cytotoxic concentration of nucleoside analogue that inhibits cell viability by 50% (CC50) and the effective concentration of nucleoside analogue that inhibits infection of cells by 50% (EC50) were calculated for each independent experiment by non-linear regression using GraphPad Prism v6.00 for Windows (GraphPad Software, San Diego, CA). Non-ambiguous” for “Non-ambiguous”

[5] = tested on: U937 cells; test: as above; details: human, 48 h
Protocol: as §2
as §1, with “The cytotoxic concentration of nucleoside analogue that inhibits cell viability by 50% (CC50) and the effective concentration of nucleoside analogue that inhibits infection of cells by 50% (EC50) were calculated for each independent experiment by non-linear regression using GraphPad Prism v6.00 for Windows (GraphPad Software, San Diego, CA). Non-ambiguous” for “Non-ambiguous”

[6] = Human immunodeficiency virus 1, H9, read-out: EC50 anti-HIV-1, H9 cells
[7] = Human immunodeficiency virus 1, Jurkat, read-out: EC50 anti-HIV-1, Jurkat cells
[8] = Human immunodeficiency virus 1, THP-1, read-out: EC50 [95% CI], THP1 PMA+, Vpx+
[9] = Human immunodeficiency virus 1, THP-1, read-out: EC50 [95% CI], THP1 PMA+, Vpx−
[10] = Human immunodeficiency virus 1, THP-1, read-out: EC50 [95% CI], THP1 PMA−, Vpx+
[11] = Human immunodeficiency virus 1, THP-1, read-out: EC50 [95% CI], THP1 PMA−, Vpx−

| Structure (SMILES) | EC50 anti-HIV-1 ([1]; H9 cells) | SI, selectivity index CC50/EC50 ([1]; H9 cells) | EC50 [1, 6] [µM] | EC50 [1, 7] [µM] | EC50 anti-HIV-1 ([1]; Jurkat cells) | EC50 [2, 8] [µM] | EC50 [2, 9] [µM] | EC50 [2, 10] [µM] | EC50 [2, 11] [µM] | Fold (EC50 Vpx+ vs Vpx−) ([2]; THP1 PMA+) [fold] | Fold (EC50 Vpx+ vs Vpx−) ([2]; THP1 PMA−) [fold] | CC50 at 48 h ([3]; H9 cells, read-out: CC50) [µM] | CC50 at 48 h [3] [µM] | CC50 at 48 h [4] [µM] | CC50 [5] [µM] | also measured |
| --- | --- | --- | --- | --- | --- | --- | --- | --- | --- | --- | --- | --- | --- | --- | --- | --- |
| Cc1nnc(C(=O)NC(C)(C)c2nc(C(=O)NCc3ccc(F)cc3)c(O)c(=O)n2C)o1 [RAL, Raltegravir] | nanomolar concentrations | > 100000 | 0.002 | 0.004 | nanomolar concentrations | 0.037 | 0.038 | 0.043 | 0.035 | 1 | 1 | > 200 | – | – | – | CC50 at 48 h ([4]; U937 PMA+, read-out: CC50): > 200 µM; CC50 at 48 h ([4]; U937 PMA−, read-out: CC50): > 200 µM |
| Cc1cn([C@H]2C=C[C@@H](CO)O2)c(=O)[nH]c1=O [d4T, 2′,3′-didehydro-2′,3′-dideoxythymidine] | – | > 36 and > 30 | < 10 | < 10 | – | 52.2 | 1.49 | 13.3 | 4.39 | 35 | – | – | > 200 | > 200 | > 200 | SI, selectivity index CC50/EC50 ([1]; Jurkat cells): > 30; EC50 ([1]; read-out: EC50 anti-HIV-1, H9 cells): 5.57 µM; EC50 ([1]; read-out: EC50 anti-HIV-1, Jurkat cells): 6.56 µM |
| Cc1ccnc2c1NC(=O)c1cccnc1N2C1CC1 [NVP, Nevirapine] | nanomolar concentrations | > 1266 | 0.158 | 0.486 | nanomolar concentrations | 0.235 | 0.223 | 0.292 | 0.244 | 1 | 1 | > 200 | – | – | – | CC50 at 48 h ([4]; PMA-differentiated, non-dividing U937 cells (PMA+), U937 PMA+, read-out: CC50): > 200 µM; CC50 at 48 h ([4]; undifferentiated U937 cells (PMA−), U937 PMA−, read-out: CC50): > 200 µM |
| Nc1nc(O)c2ncn(COC(CO)CO)c2n1 [GCV, 2′-Nor-2′-deoxyguanosine] | – | – | > 200 | > 200 | – | > 200 | 0.632 | > 200 | > 200 | >316 | – | – | > 200 | > 200 | > 200 | – |
| Nc1nc2c(ncn2COCCO)c(=O)[nH]1 [ACV, Acycloguanosine] | – | – | > 200 | > 200 | – | 29.6 | 1.08 | > 200 | > 200 | 27 | – | – | > 200 | > 200 | > 200 | – |
